In patent US20130196903A1 (priority 2010, published 2013):

Tests used:
[1] = test system: dengue virus; conditions: dengue virus infectivity; cited from earlier work
[2] = test system: wild-type (WT) strain of Measles Virus (MV); experiment: Antiviral activity against a wild-type strain of Measles Virus; type: cell-based
Protocol: The antiviral activity of a cholesterol-derivatized inhibitors derived from the sequence of Human Parainfluenza virus type 3 (HPIV3) was tested against a wild-type (WT) strain of Measles Virus (MV).

| Substance | antiviral activity [1] | fold more potent than the underivatized peptide [2] [fold] |
| --- | --- | --- |
| AWDFGSLGGVFTSIGKALHQVF (Dengue virus 2 (DV2)) [DV2^419-440] | very weak antiviral activity | – |
| Ac-VALDPIDISIVLNKAKSDLEESKEWIRRSNGKLDSIGSGSG-C(PEG4-Chol) (Ac-VALDPIDISIVLNKAKSDLEESKEWIRRSNGKLDSIGSGSG-{C(PEG4-cholesterol)}) | – | 5 |
| [(Ac-VALDPIDISIVLNKAKSDLEESKEWIRRSNGKLDSIGSGSG-C(Mal-PEG4)]2-Chol | – | 250 |
